Assays:
Assay in all cases: KinaseProfiler kinase panel
Type in all cases: biochemical
[1] = biological target: CDK5/p25(h) (Homo sapiens (Human), UniProt Q00535)
[2] = biological target: EGFR(L858R)(h) (Homo sapiens (Human), UniProt P00533, L858R)
[3] = biological target: PKCθ(h) (Homo sapiens (Human), UniProt Q04759)
[4] = biological target: CDK9/cyclin T1(h) (Homo sapiens (Human), UniProt P50750)
[5] = biological target: EGFR(L861Q)(h) (Homo sapiens (Human), UniProt P00533, L861Q)
[6] = biological target: CaMKIIδ(h) (Homo sapiens (Human), UniProt Q13557)
[7] = biological target: PIM-3(h) (Homo sapiens (Human), UniProt Q86V86)
[8] = biological target: PKBγ(h) (Homo sapiens (Human), UniProt Q9Y243)
[9] = biological target: Lck(h) (Homo sapiens (Human), UniProt P06239)
[10] = biological target: CK2(h) (Homo sapiens (Human), UniProt P68400)
[11] = biological target: Met(Y1248H)(h) (Homo sapiens (Human), UniProt P08581, Y1248H)
[12] = biological target: Met(Y1248C)(h) (Homo sapiens (Human), UniProt P08581, Y1248C)
[13] = biological target: NEK11(h) (Homo sapiens (Human), UniProt Q8NG66)
[14] = biological target: Met(D1246N)(h) (Homo sapiens (Human), UniProt P08581, D1246N)
[15] = biological target: GCK(h) (Homo sapiens (Human), UniProt Q12851)
[16] = biological target: CHK2(R145W)(h) (Homo sapiens (Human), UniProt O96017, R145W)
[17] = biological target: cSRC(h) (Homo sapiens (Human), UniProt P12931)
[18] = biological target: Rsk1(r) (Rattus norvegicus (Rat), UniProt Q63531)
[19] = biological target: Met(Y1248D)(h) (Homo sapiens (Human), UniProt P08581, Y1248D)
[20] = biological target: SIK(h) (Homo sapiens (Human), UniProt P57059)
[21] = biological target: MELK(h) (Homo sapiens (Human), UniProt Q14680)
[22] = biological target: Rsk4(h) (Homo sapiens (Human), UniProt Q9UK32)
[23] = biological target: ROCK-I(h) (Homo sapiens (Human), UniProt Q13464)
[24] = biological target: SGK(h) (Homo sapiens (Human), UniProt O00141)
[25] = biological target: BrSK2(h) (Homo sapiens (Human), UniProt Q8IWQ3)
[26] = biological target: EphA7(h) (Homo sapiens (Human), UniProt Q15375)
[27] = biological target: MARK1(h) (Homo sapiens (Human), UniProt Q9P0L2)
[28] = biological target: NEK2(h) (Homo sapiens (Human), UniProt P51955)
[29] = biological target: SAPK2b(h) (Homo sapiens (Human), UniProt Q15759)
[30] = biological target: Abl(T315I)(h) (Homo sapiens (Human), UniProt P00519, T315I)
[31] = biological target: PKCη(h) (Homo sapiens (Human), UniProt P24723)
[32] = biological target: GRK7(h) (Homo sapiens (Human), UniProt Q8WTQ7)
[33] = biological target: CaMKIδ(h) (Homo sapiens (Human), UniProt Q8IU85)
[34] = biological target: MAPK1(h) (Homo sapiens (Human), UniProt P27361)
[35] = biological target: NEK6(h) (Homo sapiens (Human), UniProt Q9HC98)
[36] = biological target: EphA5(h) (Homo sapiens (Human), UniProt P54756)
[37] = biological target: PTK5(h) (Homo sapiens (Human), UniProt P42685)
[38] = biological target: Plk3(h) (Homo sapiens (Human), UniProt Q9H4B4)
[39] = biological target: Arg(h) (Homo sapiens (Human), UniProt P42684)

Rsk1(r), sequence (Q63531 whole entry): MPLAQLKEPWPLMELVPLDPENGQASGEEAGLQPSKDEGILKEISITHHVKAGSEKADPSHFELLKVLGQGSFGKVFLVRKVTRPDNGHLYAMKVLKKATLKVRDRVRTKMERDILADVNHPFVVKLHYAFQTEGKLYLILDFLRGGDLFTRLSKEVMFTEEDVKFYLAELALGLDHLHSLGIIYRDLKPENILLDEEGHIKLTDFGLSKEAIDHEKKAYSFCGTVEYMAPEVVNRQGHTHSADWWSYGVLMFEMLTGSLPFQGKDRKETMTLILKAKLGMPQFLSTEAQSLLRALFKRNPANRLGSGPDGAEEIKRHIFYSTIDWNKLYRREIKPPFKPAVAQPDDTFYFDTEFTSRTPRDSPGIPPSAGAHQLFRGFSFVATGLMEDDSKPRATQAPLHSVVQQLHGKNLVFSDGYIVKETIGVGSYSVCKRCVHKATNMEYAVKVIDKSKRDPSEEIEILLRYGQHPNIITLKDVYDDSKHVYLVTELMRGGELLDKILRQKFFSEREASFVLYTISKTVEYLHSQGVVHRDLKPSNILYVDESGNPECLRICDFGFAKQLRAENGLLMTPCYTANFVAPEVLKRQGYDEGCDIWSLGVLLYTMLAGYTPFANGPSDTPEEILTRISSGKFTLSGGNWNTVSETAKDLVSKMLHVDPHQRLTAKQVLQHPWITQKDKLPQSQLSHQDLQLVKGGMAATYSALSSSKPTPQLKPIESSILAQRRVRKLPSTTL
Met(Y1248C)(h), sequence (P08581 other isoform, or with tags, fused parts or gaps Y1248C): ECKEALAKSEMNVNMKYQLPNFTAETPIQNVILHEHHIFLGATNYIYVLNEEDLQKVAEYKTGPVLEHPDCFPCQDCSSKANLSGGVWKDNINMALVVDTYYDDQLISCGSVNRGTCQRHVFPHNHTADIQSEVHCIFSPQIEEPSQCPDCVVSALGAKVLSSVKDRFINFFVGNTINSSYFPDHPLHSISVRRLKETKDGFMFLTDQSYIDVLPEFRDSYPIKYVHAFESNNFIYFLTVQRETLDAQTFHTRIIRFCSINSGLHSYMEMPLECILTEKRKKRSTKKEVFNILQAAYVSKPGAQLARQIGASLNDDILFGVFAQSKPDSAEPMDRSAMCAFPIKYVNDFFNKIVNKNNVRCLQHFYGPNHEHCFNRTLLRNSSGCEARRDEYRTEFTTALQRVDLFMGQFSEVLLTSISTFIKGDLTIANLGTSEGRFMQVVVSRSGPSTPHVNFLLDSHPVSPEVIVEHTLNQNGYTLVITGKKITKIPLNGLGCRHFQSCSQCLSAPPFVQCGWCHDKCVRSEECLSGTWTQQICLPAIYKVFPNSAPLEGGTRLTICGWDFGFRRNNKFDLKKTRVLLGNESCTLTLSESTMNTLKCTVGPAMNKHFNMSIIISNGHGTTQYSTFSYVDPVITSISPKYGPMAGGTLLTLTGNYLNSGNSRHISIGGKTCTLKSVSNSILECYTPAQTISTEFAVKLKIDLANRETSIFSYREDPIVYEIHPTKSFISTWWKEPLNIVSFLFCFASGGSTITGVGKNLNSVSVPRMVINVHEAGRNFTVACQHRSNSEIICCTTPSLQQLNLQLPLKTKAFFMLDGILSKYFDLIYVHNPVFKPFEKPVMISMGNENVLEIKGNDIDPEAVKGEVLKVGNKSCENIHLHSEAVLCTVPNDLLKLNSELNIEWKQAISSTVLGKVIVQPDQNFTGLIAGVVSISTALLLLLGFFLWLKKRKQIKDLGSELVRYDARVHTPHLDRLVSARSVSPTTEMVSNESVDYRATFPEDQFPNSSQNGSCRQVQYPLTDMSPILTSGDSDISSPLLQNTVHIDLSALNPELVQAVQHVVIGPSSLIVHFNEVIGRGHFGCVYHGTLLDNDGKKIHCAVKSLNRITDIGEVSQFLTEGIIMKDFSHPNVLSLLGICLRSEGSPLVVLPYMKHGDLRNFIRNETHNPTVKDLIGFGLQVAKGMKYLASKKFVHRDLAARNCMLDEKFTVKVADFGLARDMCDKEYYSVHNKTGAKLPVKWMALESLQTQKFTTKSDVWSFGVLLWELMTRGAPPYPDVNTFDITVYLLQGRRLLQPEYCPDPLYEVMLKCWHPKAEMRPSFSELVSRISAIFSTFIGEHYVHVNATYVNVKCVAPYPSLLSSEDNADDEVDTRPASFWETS
NEK11(h), sequence (Q8NG66 whole entry): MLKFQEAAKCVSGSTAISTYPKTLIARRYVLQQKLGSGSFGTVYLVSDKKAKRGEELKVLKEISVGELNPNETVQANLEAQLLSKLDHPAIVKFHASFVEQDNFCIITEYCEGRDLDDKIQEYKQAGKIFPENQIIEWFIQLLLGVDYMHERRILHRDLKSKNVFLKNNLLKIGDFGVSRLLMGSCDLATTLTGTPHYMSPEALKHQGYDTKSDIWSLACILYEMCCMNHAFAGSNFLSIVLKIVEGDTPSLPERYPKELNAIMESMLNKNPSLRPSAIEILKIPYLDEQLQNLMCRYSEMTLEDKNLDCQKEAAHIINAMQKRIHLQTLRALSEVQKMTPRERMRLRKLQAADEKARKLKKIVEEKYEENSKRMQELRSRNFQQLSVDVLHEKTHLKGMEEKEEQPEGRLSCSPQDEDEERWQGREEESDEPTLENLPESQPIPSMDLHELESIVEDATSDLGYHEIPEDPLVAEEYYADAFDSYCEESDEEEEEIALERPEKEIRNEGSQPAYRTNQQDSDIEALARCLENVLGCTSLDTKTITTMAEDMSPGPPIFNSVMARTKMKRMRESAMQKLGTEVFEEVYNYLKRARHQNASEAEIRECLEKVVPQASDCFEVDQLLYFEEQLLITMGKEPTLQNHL
Plk3(h), sequence (Q9H4B4 whole entry): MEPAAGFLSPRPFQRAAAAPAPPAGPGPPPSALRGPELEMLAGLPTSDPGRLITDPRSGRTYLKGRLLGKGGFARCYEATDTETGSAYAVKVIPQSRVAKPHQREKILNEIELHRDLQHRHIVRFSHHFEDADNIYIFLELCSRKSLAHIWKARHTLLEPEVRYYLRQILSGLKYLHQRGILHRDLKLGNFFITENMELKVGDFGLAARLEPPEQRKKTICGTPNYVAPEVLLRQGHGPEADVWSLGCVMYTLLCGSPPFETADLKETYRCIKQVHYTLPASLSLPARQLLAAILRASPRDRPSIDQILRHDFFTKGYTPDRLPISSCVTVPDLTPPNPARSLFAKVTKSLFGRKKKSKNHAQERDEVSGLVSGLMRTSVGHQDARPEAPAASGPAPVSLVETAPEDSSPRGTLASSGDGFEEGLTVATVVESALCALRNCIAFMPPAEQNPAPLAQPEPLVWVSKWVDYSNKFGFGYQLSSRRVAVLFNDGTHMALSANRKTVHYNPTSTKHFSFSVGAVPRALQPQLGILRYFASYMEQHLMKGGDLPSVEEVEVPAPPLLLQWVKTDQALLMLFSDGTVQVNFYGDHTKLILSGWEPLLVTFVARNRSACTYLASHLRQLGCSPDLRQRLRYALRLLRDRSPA
SGK(h), sequence (O00141 whole entry): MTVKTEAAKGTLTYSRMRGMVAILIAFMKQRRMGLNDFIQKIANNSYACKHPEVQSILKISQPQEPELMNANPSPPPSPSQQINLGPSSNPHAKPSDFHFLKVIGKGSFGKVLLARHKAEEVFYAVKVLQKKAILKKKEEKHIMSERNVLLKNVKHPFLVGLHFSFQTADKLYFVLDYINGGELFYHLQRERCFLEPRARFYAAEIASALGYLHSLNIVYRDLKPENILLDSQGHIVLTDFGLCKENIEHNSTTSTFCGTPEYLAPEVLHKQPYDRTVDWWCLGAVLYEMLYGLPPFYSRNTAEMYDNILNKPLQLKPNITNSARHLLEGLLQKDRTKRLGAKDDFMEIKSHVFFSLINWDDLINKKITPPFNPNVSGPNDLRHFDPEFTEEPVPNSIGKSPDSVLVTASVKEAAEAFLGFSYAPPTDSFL
MAPK1(h), sequence (P27361 whole entry): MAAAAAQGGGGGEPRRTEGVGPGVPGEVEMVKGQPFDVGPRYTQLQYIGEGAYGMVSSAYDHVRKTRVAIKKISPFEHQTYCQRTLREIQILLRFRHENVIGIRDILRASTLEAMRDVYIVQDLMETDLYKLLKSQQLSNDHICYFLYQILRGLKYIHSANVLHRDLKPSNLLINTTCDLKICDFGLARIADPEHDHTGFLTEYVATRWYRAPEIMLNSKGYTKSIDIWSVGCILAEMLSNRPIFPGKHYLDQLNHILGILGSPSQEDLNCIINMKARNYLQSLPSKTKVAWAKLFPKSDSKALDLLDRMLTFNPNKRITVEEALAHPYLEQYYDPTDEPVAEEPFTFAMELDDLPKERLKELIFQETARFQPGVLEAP
SAPK2b(h), sequence (Q15759 whole entry): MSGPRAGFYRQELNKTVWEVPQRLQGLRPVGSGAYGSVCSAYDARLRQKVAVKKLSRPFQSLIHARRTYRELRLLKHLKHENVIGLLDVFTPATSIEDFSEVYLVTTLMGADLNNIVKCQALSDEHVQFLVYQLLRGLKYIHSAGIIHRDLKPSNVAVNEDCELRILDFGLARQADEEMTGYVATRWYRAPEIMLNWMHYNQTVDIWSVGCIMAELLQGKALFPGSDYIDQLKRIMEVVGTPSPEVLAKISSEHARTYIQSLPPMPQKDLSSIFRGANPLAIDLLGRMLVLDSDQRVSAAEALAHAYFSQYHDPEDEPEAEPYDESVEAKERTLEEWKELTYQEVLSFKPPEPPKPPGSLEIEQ
NEK2(h), sequence (P51955 whole entry): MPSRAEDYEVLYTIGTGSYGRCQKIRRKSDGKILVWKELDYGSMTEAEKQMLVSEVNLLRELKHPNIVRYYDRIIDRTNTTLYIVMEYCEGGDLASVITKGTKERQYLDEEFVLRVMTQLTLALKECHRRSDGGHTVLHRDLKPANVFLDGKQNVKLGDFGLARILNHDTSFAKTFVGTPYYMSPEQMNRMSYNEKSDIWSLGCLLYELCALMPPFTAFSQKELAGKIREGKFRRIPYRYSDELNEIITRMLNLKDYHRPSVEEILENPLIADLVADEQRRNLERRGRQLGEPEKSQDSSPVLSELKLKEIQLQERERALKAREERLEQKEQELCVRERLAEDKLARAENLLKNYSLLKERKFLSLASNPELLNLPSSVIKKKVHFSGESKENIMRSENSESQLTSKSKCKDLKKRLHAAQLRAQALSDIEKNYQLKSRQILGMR

CCn1c(N2CCNCC2)nc2c(Br)c(Br)c(Br)c(Br)c21 [Compound 416, 4,5,6,7-tetrabromo-1-ethyl-2-(piperazin-1-yl)-1H-benzo[d]imidazole]
remaining activity at 1 µM [1]: 1%
remaining activity at 1 µM [2]: 22%
remaining activity at 1 µM [3]: 26%
remaining activity at 1 µM [4]: 27%
remaining activity at 1 µM [5]: 27%
remaining activity at 1 µM [6]: 28%
remaining activity at 1 µM [7]: 34%
remaining activity at 1 µM [8]: 39%
remaining activity at 1 µM [9]: 43%
remaining activity at 1 µM [10]: 59%
remaining activity at 1 µM [11]: 70%
remaining activity at 1 µM [12]: 73%
remaining activity at 1 µM [13]: 73%
remaining activity at 1 µM [14]: 74%
remaining activity at 1 µM [15]: 75%
remaining activity at 1 µM [16]: 76%
remaining activity at 1 µM [17]: 79%
remaining activity at 1 µM [18]: 79%
remaining activity at 1 µM [19]: 81%
remaining activity at 1 µM [20]: 84%
remaining activity at 1 µM [21]: 86%
remaining activity at 1 µM [22]: 89%
remaining activity at 1 µM [23]: 90%
remaining activity at 1 µM [24]: 90%
remaining activity at 1 µM [25]: 91%
remaining activity at 1 µM [26]: 91%
remaining activity at 1 µM [27]: 91%
remaining activity at 1 µM [28]: 91%
remaining activity at 1 µM [29]: 91%
remaining activity at 1 µM [30]: 92%
remaining activity at 1 µM [31]: 92%
remaining activity at 1 µM [32]: 93%
remaining activity at 1 µM [33]: 94%
remaining activity at 1 µM [34]: 94%
remaining activity at 1 µM [35]: 97%
remaining activity at 1 µM [36]: 99%
remaining activity at 1 µM [37]: 99%
remaining activity at 1 µM [38]: 101%
remaining activity at 1 µM [39]: 119%

From patent US8604217B2, “Compound, a process for its preparation, a pharmaceutical composition, use of a compound, a method for modulating or regulating serine/threonine kinases and a serine/threonine kinases modulating agent” (Selvita S.A., priority 2009, dated 2013)
